From the supplement of paper PMC11451515

Assays:
Settings in all cases: 48 h
[1] = test system: SEM cells; test: AUC of viability dose-response curve (% viability x log10 dose units); higher = less sensitive
How it was run: (§1)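 Area under the curve was integrated by trapezoidal rule from a log-logistic fit of normalised viability, with curves exceeding full viability scaled and quality-control failures removed. The fit had four parameters over log10 doses. Viability came from CellTiter-Glo One luminescence, normalised per plate to DMSO and cell-free wells, after leukemia cells adapted to each medium (500 or 1000 cells/well, 1536-well plates) were exposed to library compounds in DMSO for 48 h at 37°C. The 11 threefold doses ran from 47 μM to 0.79 nM.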

[2] = test system: NOMO1; test: as above
How it was run: as §1

[3] = test system: P12-Ichikawa; test: as above
How it was run: as §1

[4] = test system: SEM cells; test: cell viability relative to DMSO control; higher = less cytotoxic
How it was run: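 Viability is expressed as a percentage of DMSO wells within each plate, and cell-free wells serve as background. Seeding densities in the 1536-well plates (5 μl) were 500 cells/well for NOMO1 or SEM leukemia cells and 1000 cells/well for P12-Ichikawa. Each line was adapted for at least four passages in each medium. Library compounds in DMSO were pin-dosed at 47 μM to 0.79 nM (11 points, threefold), and CellTiter-Glo One luminescence was read after 48 h at 37°C.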

CC(COc1ccccc1)N(CCCl)Cc1ccccc1 (configuration not stated)
AUC of viability dose-response curve
Settings | [1] | [2] | [3]
HPLM + 10% dialyzed FBS | 465 | 304 | 367
RPMI 5 mM glucose + 10% FBS | 451 | 280 | 372
RPMI 5 mM glucose + 10% dialyzed FBS | 469 | 316 | 380

cell viability [%], [4]
Settings | HPLM + 10% dialyzed FBS | RPMI 5 mM glucose + 10% FBS
0.000781 µM | 89.3 | 101
0.00234 µM | 102 | 123
0.00702 µM | 121 | 127
0.0211 µM | 110 | 120
0.0632 µM | 116 | 112
0.19 µM | 115 | 135
0.569 µM | 104 | 131
1.71 µM | 110 | 128
5.12 µM | 123 | 148
15.4 µM | 119 | 147
46.1 µM | 89.4 | 115

CC(=O)NCC(=O)N1[C@@H]2CC[C@H]1c1ccc(Nc3ncc(C(F)(F)F)c(NC4CCC4)n3)cc12
AUC of viability dose-response curve
Settings | [1] | [2] | [3]
HPLM + 10% dialyzed FBS | 247 | 358 | 258
RPMI 5 mM glucose + 10% FBS | 227 | 344 | 268
RPMI 5 mM glucose + 10% dialyzed FBS | 227 | 336 | 290

O=c1oc2c(O)c(O)cc3c(=O)oc4c(O)c(O)cc1c4c23
AUC of viability dose-response curve
Settings | [1] | [2] | [3]
HPLM + 10% dialyzed FBS | 471 | 455 | 444
RPMI 5 mM glucose + 10% FBS | 467 | 454 | 452
RPMI 5 mM glucose + 10% dialyzed FBS | 451 | 466 | 458

CC[S+](=O)([O-])N1CC(CC#N)(n2cc(-c3ncnc4[nH]ccc34)cn2)C1
AUC of viability dose-response curve
Settings | [1] | [2] | [3]
HPLM + 10% dialyzed FBS | 449 | 441 | 452
RPMI 5 mM glucose + 10% FBS | 457 | 451 | 454
RPMI 5 mM glucose + 10% dialyzed FBS | 450 | 471 | 443

CN(Cc1cc(Br)cc(Br)c1N)C1CCCCC1
AUC of viability dose-response curve
Settings | [1] | [2] | [3]
HPLM + 10% dialyzed FBS | 472 | 444 | 468
RPMI 5 mM glucose + 10% FBS | 461 | 464 | 471
RPMI 5 mM glucose + 10% dialyzed FBS | 441 | 448 | 470

[4], HPLM + 10% dialyzed FBS
Settings | cell viability [%]
0.000781 µM | 99.1
0.00234 µM | 122
0.00702 µM | 123
0.0211 µM | 130
0.0632 µM | 104
0.19 µM | 133
0.569 µM | 104
1.71 µM | 133
5.12 µM | 121
15.4 µM | 130
46.1 µM | 108

CC(=O)[C@]1(O)Cc2c(O)c3c(c(O)c2[C@@H](O[C@H]2C[C@H](N)[C@H](O)[C@H](C)O2)C1)C(=O)c1ccccc1C3=O
AUC of viability dose-response curve
Settings | HPLM + 10% dialyzed FBS | RPMI 5 mM glucose + 10% FBS | RPMI 5 mM glucose + 10% dialyzed FBS
[1] | 320 | 313 | 313
[2] | 364 | 367 | 374

cell viability [%], [4]
Settings | HPLM + 10% dialyzed FBS | RPMI 5 mM glucose + 10% FBS | RPMI 5 mM glucose + 10% dialyzed FBS
0.000781 µM | 118 | 104 | 126
0.00234 µM | 127 | 117 | 110
0.00702 µM | 123 | 113 | 116
0.0211 µM | 124 | 104 | 125
0.0632 µM | 128 | 97.8 | 113
0.19 µM | 119 | 101 | 97.1
0.569 µM | 98.8 | 80.3 | 90.3
1.71 µM | 34.5 | 18.9 | 31.2
5.12 µM | 8.24 | 7.45 | 6.01
15.4 µM | 7.58 | 6.93 | 5.83
46.1 µM | 6.23 | 4.81 | 4.8
